Data reported in US5496835A, “Heterocyclic compounds having angiotensin II antagonistic activity and use thereof” (Takeda Chemical Industries, Ltd., priority 1992, dated 1996).

Key:
AII receptor = target: T1, AII receptor (Bos taurus, UniProt P25104); assay: Inhibition of binding of 125I-angiotensin II to AII receptor membrane fraction; details: bovine adrenal cortex membrane fraction, 125I-AII, read-out: Binding-inhibitory action (rate) %; for inhibition at 1 µM: compound 10^-6 M; for inhibition at 0.1 µM: compound 10^-7 M
T1 construct: An AII receptor membrane fraction was prepared from bovine adrenal cortex; from tissue; host or cells: bovine adrenal cortex, membrane fraction
T1 sequence (P25104 1-359): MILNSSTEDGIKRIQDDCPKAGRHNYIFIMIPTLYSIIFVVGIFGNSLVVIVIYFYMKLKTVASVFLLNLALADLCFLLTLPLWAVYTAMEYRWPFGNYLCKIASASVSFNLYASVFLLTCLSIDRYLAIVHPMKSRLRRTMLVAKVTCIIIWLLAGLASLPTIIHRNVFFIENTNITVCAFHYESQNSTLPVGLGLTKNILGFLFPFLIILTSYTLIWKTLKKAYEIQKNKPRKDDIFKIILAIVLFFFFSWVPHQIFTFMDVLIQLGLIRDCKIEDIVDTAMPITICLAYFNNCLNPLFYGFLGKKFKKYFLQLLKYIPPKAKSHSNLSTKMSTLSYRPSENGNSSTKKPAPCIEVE
Description: An experiment of inhibition on the binding of angiotensin II (AII) to AII receptor was conducted by modifying the method of Douglas et al. [Endocrinology, 102, 685-696 (1978)]. An AII receptor membrane fraction was prepared from bovine adrenal cortex.
The compound of the present invention (10^-6 M or 10^-7 M) and ^125 I-angiotensin II (^125 I-AII) (2.44kBq/50 μl) were added to the receptor membrane fraction, and the mixture was incubated at room temperature for one hour. The receptor-bound and free ^125 I-AII were separated through a filter (Whatman GF/B filter), and the radioactivity of ^125 I-AII bound to the receptor was determined.

pressor action of AII = assay: Inhibitory effect on pressor action of AII in rats after oral administration; format: in vivo, Jcl:SD rats; details: 1 mg/kg p.o., percent inhibition of pressor action of AII 100 ng/kg i.v.
Description: Jcl:SD rats (9 week old, male) were used. On the previous day of the experiment, these animals were applied with cannulation into the femoral artery and vein under anesthesia with pentobarbital Na. These animals were fasted but allowed to access freely to drinking water until the experiment was started. Just on the day of conducting the experiment, the artery cannula was connected with a blood-pressure transducer, and the average blood pressure was recorded by means of polygraph. Before administration of the drug, the pressor action due to intravenous administration of AII (100 ng/kg) as the control was determined. The drugs were orally administered, then, at each point of the determination, AII was administered intravenously, and the pressor action was similarly determined. By comparing the pressor action before and after administration of the drug, the percent inhibition by the drug was evaluated.

Structure (SMILES) | inhibition at 1 µM (AII receptor) [%] | inhibition at 0.1 µM (AII receptor) [%] | Pressor-inhibitory action (pressor action of AII)
CCCCc1n[nH]c(C(=O)O)c1Cc1ccc(-c2ccccc2-c2nc(=O)o[nH]2)cc1 [Working Example 2, 3-Butyl-4-[2'-(2,5-dihydro-5-oxo-1,2,4-oxadiazol-3-yl)biphenyl-4-yl]methylpyrazole-5-carboxylic acid] | 68 | 30 | + (50% > +-)
CCCCc1n[nH]c(C(=O)OC)c1Cc1ccc(-c2ccccc2-c2nsc(=O)[nH]2)cc1 [compound 3] | 17 | 7 | +++ (+++ ≥ 70%)
CCCCc1nn(-c2ccccc2Cl)c(C(=O)O)c1Cc1ccc(-c2ccccc2-c2noc(=O)[nH]2)cc1 [compound 6] | 32 |  | ++ (70% > ++ ≥ 50%)
CCCCc1nn(-c2ccccc2Cl)c(C(=O)O)c1Cc1ccc(-c2ccccc2-c2nsc(=O)[nH]2)cc1 [compound 8] | 37 |  | +++ (+++ ≥ 70%)
